According to ChEMBL document CHEMBL3991601, “The target landscape of clinical kinase drugs” (Science, 2017):
Active and inactive are the calls of the source. On the calls: in the data inactive means no Kd found up to 30 µM.

How the values were obtained:
[1] = target: T1, Serine/threonine-protein kinase NLK (Homo sapiens, UniProt Q9UBE8)
T1 sequence (Q9UBE8 whole entry): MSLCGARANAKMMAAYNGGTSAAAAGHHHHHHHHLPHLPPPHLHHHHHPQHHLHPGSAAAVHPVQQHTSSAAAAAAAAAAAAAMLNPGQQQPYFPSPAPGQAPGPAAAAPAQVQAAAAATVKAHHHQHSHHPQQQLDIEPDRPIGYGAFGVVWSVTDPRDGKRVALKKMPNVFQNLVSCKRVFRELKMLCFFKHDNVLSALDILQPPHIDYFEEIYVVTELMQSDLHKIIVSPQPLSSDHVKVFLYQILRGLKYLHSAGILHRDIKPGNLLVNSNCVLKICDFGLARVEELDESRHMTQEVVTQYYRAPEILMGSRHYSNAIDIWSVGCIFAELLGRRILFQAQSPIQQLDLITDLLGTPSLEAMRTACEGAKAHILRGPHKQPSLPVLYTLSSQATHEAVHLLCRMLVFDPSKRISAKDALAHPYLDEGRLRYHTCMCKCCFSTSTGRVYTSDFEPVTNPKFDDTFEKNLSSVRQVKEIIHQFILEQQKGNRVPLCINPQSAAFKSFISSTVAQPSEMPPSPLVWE

Ephrin type-B receptor 3 = target: T2, Ephrin type-B receptor 3 (Homo sapiens, UniProt P54753)
T2 sequence (P54753 whole entry): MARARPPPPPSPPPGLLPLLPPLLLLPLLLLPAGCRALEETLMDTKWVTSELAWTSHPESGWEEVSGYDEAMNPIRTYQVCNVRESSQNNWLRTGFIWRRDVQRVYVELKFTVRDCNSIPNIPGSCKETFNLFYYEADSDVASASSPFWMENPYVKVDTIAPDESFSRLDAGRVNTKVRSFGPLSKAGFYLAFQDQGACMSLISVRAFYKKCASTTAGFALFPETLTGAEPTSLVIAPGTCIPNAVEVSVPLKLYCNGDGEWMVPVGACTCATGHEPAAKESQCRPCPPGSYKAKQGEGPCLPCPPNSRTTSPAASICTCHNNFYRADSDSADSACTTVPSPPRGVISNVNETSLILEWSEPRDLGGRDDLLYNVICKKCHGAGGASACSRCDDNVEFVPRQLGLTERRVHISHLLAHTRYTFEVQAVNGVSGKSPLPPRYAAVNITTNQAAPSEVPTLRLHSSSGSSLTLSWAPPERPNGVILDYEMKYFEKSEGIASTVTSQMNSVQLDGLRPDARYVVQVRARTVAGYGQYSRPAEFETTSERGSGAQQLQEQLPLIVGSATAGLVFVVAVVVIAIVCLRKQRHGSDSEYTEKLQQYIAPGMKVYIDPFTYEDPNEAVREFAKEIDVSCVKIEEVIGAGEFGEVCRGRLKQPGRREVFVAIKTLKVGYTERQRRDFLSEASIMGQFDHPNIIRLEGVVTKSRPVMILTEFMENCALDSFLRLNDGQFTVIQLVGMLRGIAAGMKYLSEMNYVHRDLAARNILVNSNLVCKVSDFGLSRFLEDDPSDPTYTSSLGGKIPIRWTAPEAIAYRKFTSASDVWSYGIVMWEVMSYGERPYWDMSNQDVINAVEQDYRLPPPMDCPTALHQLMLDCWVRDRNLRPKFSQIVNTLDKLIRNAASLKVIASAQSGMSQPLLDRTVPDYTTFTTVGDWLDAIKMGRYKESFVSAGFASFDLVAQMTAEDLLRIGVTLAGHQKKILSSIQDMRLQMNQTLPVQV

[2] = target: T3, Peroxisomal acyl-coenzyme A oxidase 1 (Homo sapiens, UniProt Q15067)
T3 sequence (Q15067 whole entry): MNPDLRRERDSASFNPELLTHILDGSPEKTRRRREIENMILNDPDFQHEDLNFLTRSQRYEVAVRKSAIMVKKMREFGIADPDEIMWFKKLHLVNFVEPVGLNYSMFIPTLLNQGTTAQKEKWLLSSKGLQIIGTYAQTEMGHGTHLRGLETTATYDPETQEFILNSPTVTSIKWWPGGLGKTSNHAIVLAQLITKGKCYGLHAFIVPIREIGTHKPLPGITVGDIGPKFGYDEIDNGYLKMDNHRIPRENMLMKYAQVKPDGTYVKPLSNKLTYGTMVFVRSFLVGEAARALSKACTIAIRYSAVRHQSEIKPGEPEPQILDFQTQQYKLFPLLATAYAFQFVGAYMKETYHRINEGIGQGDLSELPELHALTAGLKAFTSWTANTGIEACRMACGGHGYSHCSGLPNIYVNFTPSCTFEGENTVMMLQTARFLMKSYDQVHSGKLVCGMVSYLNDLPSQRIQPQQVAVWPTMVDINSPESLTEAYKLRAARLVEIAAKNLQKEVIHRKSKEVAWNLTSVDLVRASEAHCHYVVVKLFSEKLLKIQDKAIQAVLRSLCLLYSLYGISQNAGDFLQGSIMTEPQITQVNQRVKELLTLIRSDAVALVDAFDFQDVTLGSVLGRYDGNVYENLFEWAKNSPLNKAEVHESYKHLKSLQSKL

SMILES	Kd [1]	Kd (Ephrin type-B receptor 3)	Kd [2]
COc1cc2nccc(Oc3ccc(NC(=O)C4(C(=O)Nc5ccc(F)cc5)CC4)cc3)c2cc1OC [CABOZANTINIB]	> 30 µM (inactive)	> 30 µM (inactive)	> 30 µM (inactive)
O=C(Nc1ccc(OC(F)(F)F)cc1)c1sccc1NCc1ccnc2ccccc12 [OSI-930]	> 30 µM (inactive)	> 30 µM (inactive)	> 30 µM (inactive)
Cc1cc(Nc2nc(N[C@@H](C)c3ncc(F)cn3)ncc2Cl)n[nH]1 [AZD-1480]	> 30 µM (inactive)	> 30 µM (inactive)	> 30 µM (inactive)
COc1cccc(Nc2ncnn3ccc(CN4CC[C@@H](N)[C@H](O)C4)c23)c1 [BMS-690514]	> 30 µM (inactive)	–	> 30 µM (inactive)
COc1cc2ncnc3c2cc1OCCCCCN(C)Cc1ccc(Br)cc1N3 [JNJ-26483327]	> 30 µM (inactive)	> 30 µM (inactive)	> 30 µM (inactive)
CCc1cc2c(cc1N1CCC(N3CCOCC3)CC1)C(C)(C)c1[nH]c3cc(C#N)ccc3c1C2=O [ALECTINIB]	> 30 µM (inactive)	> 30 µM (inactive)	0.271 µM
CN(c1ncccc1CNc1nc(Nc2ccc3c(c2)CC(=O)N3)ncc1C(F)(F)F)S(C)(=O)=O [PF-00562271]	> 30 µM (inactive)	> 30 µM (inactive)	> 30 µM (inactive)
CNC(=O)c1cccc(-c2ccc3c(N4CCOC[C@@H]4C)nc(N4CCOC[C@@H]4C)nc3n2)c1 [VISTUSERTIB]	> 30 µM (inactive)	> 30 µM (inactive)	> 30 µM (inactive)
C=CCn1c(=O)c2cnc(Nc3ccc(N4CCN(C)CC4)cc3)nc2n1-c1cccc(C(C)(C)O)n1 [ADAVOSERTIB]	> 30 µM (inactive)	> 30 µM (inactive)	> 30 µM (inactive)
CNC(=O)c1cc(COc2nnc(Nc3ccc(Cl)cc3)c3ccoc23)ccn1 [TELATINIB]	> 30 µM (inactive)	> 30 µM (inactive)	> 30 µM (inactive)
COc1cc2c(Oc3ccc4[nH]c(C)cc4c3F)ncnc2cc1OCCCN1CCCC1 [CEDIRANIB]	–	–	> 30 µM (inactive)
Cn1c(=O)c(F)c(Nc2ccc(I)cc2F)c2c(=O)n(C[C@@H](O)CO)cnc21 [TAK-733]	> 30 µM (inactive)	> 30 µM (inactive)	> 30 µM (inactive)
CC[C@@](C)(Nc1ccnc(-c2c[nH]c3ncccc23)n1)C(=O)NCC(F)(F)F [DECERNOTINIB]	> 30 µM (inactive)	> 30 µM (inactive)	> 30 µM (inactive)
Cc1cc(-c2cc(OC(=O)c3ccccc3)ccc2Cl)cc2nnc(Nc3ccc(OCCN4CCCC4)cc3)nc12 [TG100-801]	> 30 µM (inactive)	> 30 µM (inactive)	> 30 µM (inactive)
O=C(NOC[C@H](O)CO)c1ccc(F)c(F)c1Nc1ccc(I)cc1F [MIRDAMETINIB]	> 30 µM (inactive)	> 30 µM (inactive)	> 30 µM (inactive)
N#CCNC(=O)c1ccc(-c2ccnc(Nc3ccc(N4CCOCC4)cc3)n2)cc1 [MOMELOTINIB]	> 30 µM (inactive)	> 30 µM (inactive)	–
CC(C)(O)CC(=O)NCCn1ccc2ncnc(Nc3ccc(Oc4cccc(C(F)(F)F)c4)c(Cl)c3)c21 [TAK-285]	0.816 µM	> 30 µM (inactive)	> 30 µM (inactive)
CC1(C)CNc2cc(NC(=O)c3cccnc3NCc3ccncc3)ccc21 [MOTESANIB]	–	–	> 30 µM (inactive)
Cc1cc(C(=O)Nc2cc(Oc3ccc4nc(NC(=O)C5CC5)cn4n3)ccc2C)n(C)n1 [TAK-593]	> 30 µM (inactive)	> 30 µM (inactive)	–

SMILES	Kd [1]	Kd (Ephrin type-B receptor 3)	Kd [2]
NC[C@@](O)(c1ccc(Cl)cc1)c1ccc(-c2cn[nH]c2)cc1 [AT-13148]	> 30 µM (inactive)	> 30 µM (inactive)	> 30 µM (inactive)
Cc1c(NC(=O)OC[C@@H]2COCCN2)cn2ncnc(Nc3ccc4c(cnn4Cc4cccc(F)c4)c3)c12 [AC-480]	> 30 µM (inactive)	> 30 µM (inactive)	> 30 µM (inactive)
C=CCN(/C=C1/C(=O)O[C@H](COC)[C@@]2(C)C1=C(O)C(=O)C1=C2[C@H](OC(C)=O)C[C@]2(C)C(=O)CC[C@@H]12)CC=C [SONOLISIB]	> 30 µM (inactive)	> 30 µM (inactive)	–
COc1cc(Nc2ncc(F)c(Nc3ccc4c(n3)N(COP(=O)(O)O)C(=O)C(C)(C)O4)n2)cc(OC)c1OC [FOSTAMATINIB]	> 30 µM (inactive)	> 30 µM (inactive)	> 30 µM (inactive)
C[C@@H]1COC(Nc2ccc3ncnc(Nc4ccc(OCc5nccs5)c(Cl)c4)c3c2)=N1 [VARLITINIB]	> 30 µM (inactive)	> 30 µM (inactive)	> 30 µM (inactive)
COCCN1CCN(Cc2ccc(-c3n[nH]c4c3C(=O)c3c(NC(=O)NN5CCOCC5)cccc3-4)cc2)CC1 [RGB-286638]	> 30 µM (inactive)	> 30 µM (inactive)	> 30 µM (inactive)
CNC(=O)c1ccc(Nc2ncc(C(F)(F)F)c(NCc3nccnc3N(C)S(C)(=O)=O)n2)cc1 [DEFACTINIB]	> 30 µM (inactive)	> 30 µM (inactive)	–
C=CC(=O)Nc1cccc(Nc2nc(Nc3ccc(N4CCN(C(C)=O)CC4)cc3OC)ncc2C(F)(F)F)c1 [ROCILETINIB]	> 30 µM (inactive)	> 30 µM (inactive)	> 30 µM (inactive)
CCOc1ccn(-c2ccc(F)cc2)c(=O)c1C(=O)Nc1ccc(Oc2ccnc(N)c2Cl)c(F)c1 [BMS-777607]	> 30 µM (inactive)	> 30 µM (inactive)	–
O=C(O)c1ccc2c(c1)nc(Nc1cccc(Cl)c1)c1ccncc12 [SILMITASERTIB]	> 30 µM (inactive)	> 30 µM (inactive)	–
CN(C)C/C=C/C(=O)Nc1cc2c(Nc3ccc(F)c(Cl)c3)ncnc2cc1O[C@H]1CCOC1 [AFATINIB]	–	–	> 30 µM (inactive)
NC(=O)c1ccc(N(C(N)=O)c2c(F)cccc2F)nc1-c1ccc(F)cc1F [VX-702]	–	> 30 µM (inactive)	> 30 µM (inactive)
COc1cc(F)c(F)c(Nc2ccc(I)cc2F)c1NS(=O)(=O)C1(C[C@H](O)CO)CC1 [REFAMETINIB]	> 30 µM (inactive)	> 30 µM (inactive)	–
CCc1nc(C(N)=O)c(Nc2ccc(N3CCC(N4CCN(C)CC4)CC3)c(OC)c2)nc1NC1CCOCC1 [GILTERITINIB]	> 30 µM (inactive)	> 30 µM (inactive)	–
Cn1cnc2c(F)c(Nc3ccc(Br)cc3Cl)c(C(=O)NOCCO)cc21 [SELUMETINIB]	–	–	> 30 µM (inactive)
COc1cc2c(N3CCN(C(=O)Nc4ccc(OC(C)C)cc4)CC3)ncnc2cc1OCCCN1CCCCC1 [TANDUTINIB]	–	–	> 30 µM (inactive)
CCN1CCN(Cc2ccc(Nc3ncc(F)c(-c4cc(F)c5nc(C)n(C(C)C)c5c4)n3)nc2)CC1 [ABEMACICLIB]	> 30 µM (inactive)	> 30 µM (inactive)	–
CN1CCN(c2nc(C3=C(c4c[nH]c5ccccc45)C(=O)NC3=O)c3ccccc3n2)CC1 [SOTRASTAURIN]	> 30 µM (inactive)	> 30 µM (inactive)	–
CC(C)CC(=O)Nc1[nH]nc2c1CN(C(=O)C1CCN(C)CC1)C2(C)C [PHA-793887]	–	> 30 µM (inactive)	> 30 µM (inactive)
